Measurements as given in patent US20050169863A1, “2-Thioacetamide compositions for stimulating the growth of keratin fibers and/or for reducing loss thereof” (L'OREAL, priority 2003, published 2005).

Assays:
15-PGDH = biological target: T1, 15-PGDH (Homo sapiens, UniProt P15428); test: Test on 15-PGDH (spectrophotometric, 340 nm, PGE2/β-NAD); format: biochemical; details: for Inhibition of 15-PGDH % inhibition at 50 μm: compound at 50 μm, pH 7.4
T1 construct: made in house
T1 sequence (P15428 1-266): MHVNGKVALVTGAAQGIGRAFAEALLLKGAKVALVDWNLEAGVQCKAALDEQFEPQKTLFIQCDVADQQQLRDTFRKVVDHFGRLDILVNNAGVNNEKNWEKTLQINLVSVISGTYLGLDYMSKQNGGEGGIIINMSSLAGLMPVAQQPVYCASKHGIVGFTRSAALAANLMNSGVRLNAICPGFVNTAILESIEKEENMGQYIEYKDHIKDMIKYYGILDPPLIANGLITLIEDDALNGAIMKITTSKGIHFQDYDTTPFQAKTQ
Protocol: The enzyme 15-PGDH is obtained as described in patent application FR 02/05067 filed in the name of L'Oréal, as a suspension in a medium adjusted to a concentration of 0.3 mg/mL and then blocked at −80° C. For the purposes of the test, this suspension is thawed and stored in ice.
In parallel, a 100 mM, pH 7.4 Tris buffer containing 0.1 mM of dithiothreitol (D5545, Sigma-Aldrich, L'isle D'Abeau Chesne, BP 701, 38297, Saint Quentin Fallavier), 1.5 mM of β-NAD (N6522, Sigma-Aldrich, L'isle D'Abeau Chesne, BP 701, 38297, Saint Quentin Fallavier), and 50 μM of prostaglandin E2 (P4172, Sigma-Aldrich, L'isle D'Abeau Chesne, BP 701, 38297, Saint Quentin Fallavier) is prepared.
(§1) 0.965 ml of this buffer (brought to 37° C. beforehand) is introduced into the cuvette of a spectrophotometer (Perkin-Elmer, Lambda 2) thermostatically maintained at 37° C., the measuring wavelength of which is set at 340 nm. 0.035 mL of enzymatic suspension at 37° C. is introduced into the cuvette concomitantly with the recording (corresponding to an increase in the optical density at 340 nm). The maximum reaction rate is recorded.
The test values (containing the compounds (I)) are compared with the control value (without compound (I)); the results indicated represent the concentration at which the compound of formula (I) reduces the anzymatic activity of 15-PGDH by 50%, namely IC50dh.

PGF synthase (PGFS) = biological target: T2, PGF synthase (PGFS) (Homo sapiens, UniProt P42330); test: Test on PGF synthase (spectrophotometric, 340 nm, 9,10-phenanthrenequinone/β-NADPH); format: biochemical; details: IC50fs; 37° C., pH 6.5 Tris buffer, 20 μM 9,10-phenanthrenequinone, 100 μM β-NADPH
T2 construct: made in house
T2 sequence (P42330 1-323): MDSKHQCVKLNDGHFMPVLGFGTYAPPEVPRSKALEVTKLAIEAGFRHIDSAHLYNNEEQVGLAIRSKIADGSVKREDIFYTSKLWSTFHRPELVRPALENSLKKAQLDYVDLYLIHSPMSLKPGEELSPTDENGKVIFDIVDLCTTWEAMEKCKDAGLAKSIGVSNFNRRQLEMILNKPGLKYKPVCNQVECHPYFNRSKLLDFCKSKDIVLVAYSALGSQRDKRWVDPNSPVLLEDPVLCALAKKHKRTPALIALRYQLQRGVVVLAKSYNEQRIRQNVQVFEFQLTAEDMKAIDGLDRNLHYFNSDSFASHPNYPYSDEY
Protocol: The enzyme PGFS is obtained as described in document FR-A-02/05067, at a concentration of 0.5 mg/mL, as a suspension in a suitable medium, and blocked at −80° C. For the purposes of the test, this suspension is thawed and stored in ice.
In parallel, a 100 mM, pH 6.5 Tris buffer containing 20 μM of 9,10-phenanthrenequinone* (P2896, Sigma-Aldrich, L'isle D'Abeau Chesne, BP 701, 38297, Saint Quentin Fallavier) and 100 μM of β-NADPH (N1630, Sigma-Aldrich, L'isle D'Abeau Chesne, BP 701, 38297, Saint Quentin Fallavier) is prepared in a brown flask (protected from light).
*A stock solution with a titre of 1 mM is prepared in absolute ethanol and brought to 40° C.; the flask is placed in an ultrasound cuvette to facilitate the dissolution of the product.
as §1, with “0.950 mL” for “0.965 ml”, “0.05” for “0.035”, “a reduction” for “an increase”, “recorded. […]” for “recorded.”

SMILES	IC50 (15-PGDH; IC50dh, 37° C., pH 7.4 Tris buffer, 50 μM prostaglandin E2, 1.5 mM β-NAD, read-out: Inhibition of 15-PGDH IC50) [µM]	Inhibition of 15-PGDH % inhibition at 50 μm (15-PGDH; 37° C.) [%]	IC50fs/IC50dh ratio (15-PGDH; selectivity: PGF synthase IC50 over 15-PGDH IC50)	IC50 (PGF synthase (PGFS)) [µM]
O=C(CSc1nc2ccccc2s1)NC1CCCC1 [Compound 1]	5	89	greater than 10	≥ 50
O=C(CSc1nnc2sc3ccccc3n12)Nc1ccc(Br)cc1 [Compound 3]		26		
CC(=O)c1ccc(C#N)c(SCC(=O)Nc2cc(Cl)cc(Cl)c2)n1 [Compound 2]		30		
